Test results taken from patent US20240383955A1, “MODIFIED ANTIMICROBIAL PEPTIDES” (priority 2021, published 2024).
In brackets after ≈: the same amount, converted by molar mass. Square brackets hold non-standard residues; d marks the D form. Peptide text beside a SMILES is read from it. Dab = NCC[C@H](N)C(=O)O

Key:
C. krusei = assay: MIC by CLSI M27/M38 methodology; assay type: cell-based; conditions: C. krusei isolate ATCC 6258; Table 8
P. variotii = assay: MIC by CLSI M27/M38 methodology; assay type: cell-based; conditions: P. variotii isolate MYA-363; Table 8

Row | SMILES | MIC, 100% (C. krusei) [µg/mL] | MIC, 100% (P. variotii) [µg/mL]
1 | CC[C@H](C)[C@H](NC(=O)[C@H](CCCNC(=N)N)NC(=O)[C@@H](NC(=O)[C@H](CS)NC(=O)[C@H](Cc1ccccc1)NC(=O)[C@H](CS)NC(=O)[C@H](CCCNC(=N)N)NC(=O)[C@H](CCCNC(=N)N)NC(=O)[C@H](CCCNC(=N)N)NC(=O)[C@H](Cc1ccccc1)NC(=O)CNC(=O)[C@H](CCCNC(=N)N)NC(=O)[C@H](CS)NC(=O)[C@H](CCCNC(=N)N)NC(=O)CNC(=O)CN)[C@@H](C)O)C(=O)N[C@@H](CS)C(N)=O [GMA4C_V2A] (H-GGRCRGFRRRCFCTRIC-NH2; N-terminus assumed) | 16 (≈ 7.82 µM) | 8 (≈ 3.91 µM)
2 | N=C(N)NCCC[C@H](NC(=O)CNC(=O)[C@@H](N)Cc1ccccc1)C(=O)N[C@@H](CS)C(=O)N[C@@H](CCCNC(=N)N)C(=O)NCC(=O)N[C@@H](Cc1ccccc1)C(=O)N[C@@H](CCCNC(=N)N)C(=O)N[C@@H](CCCNC(=N)N)C(=O)N[C@@H](CCCNC(=N)N)C(=O)N[C@@H](CS)C(=O)N[C@@H](Cc1ccccc1)C(=O)N[C@@H](CS)C(=O)N[C@@H](Cc1c[nH]c2ccccc12)C(=O)N[C@@H](CCCNC(=N)N)C(=O)N[C@@H](Cc1c[nH]c2ccccc12)C(=O)N[C@@H](CS)C(N)=O [GMA4C_V4A] (H-FGRCRGFRRRCFCWRWC-NH2; N-terminus assumed) | 8 (≈ 3.49 µM) | 8 (≈ 3.49 µM)
3 | NCC[C@H](NC(=O)CNC(=O)[C@@H](N)Cc1ccccc1)C(=O)N[C@@H](CS)C(=O)N[C@@H](CCN)C(=O)NCC(=O)N[C@@H](Cc1ccccc1)C(=O)N[C@@H](CCN)C(=O)N[C@@H](CCN)C(=O)N[C@@H](CCN)C(=O)N[C@@H](CS)C(=O)N[C@@H](Cc1ccccc1)C(=O)N[C@@H](CS)C(=O)N[C@@H](Cc1c[nH]c2ccccc12)C(=O)N[C@@H](CCN)C(=O)N[C@@H](Cc1c[nH]c2ccccc12)C(=O)N[C@@H](CS)C(N)=O [GMA4C_V5A, FG(Dab)C(Dab)GF(Dab)(Dab)(Dab)CFCW(Dab)WC-NH2] (H-FG[Dab]C[Dab]GF[Dab][Dab][Dab]CFCW[Dab]WC-NH2; N-terminus assumed) | 8 (≈ 4.08 µM) | 4 (≈ 2.04 µM)
